# Reference: ChEMBL document CHEMBL5728503, “Second generation GRP94-selective inhibitors” (2021)
# Biological target: Endoplasmin (Canis lupus familiaris, UniProt P41148)
# Assay: Fluorescence Polarization Assay: The assay was performed in 96-well black, flat-bottom plates with a final volume of 100 μL. 25 μL of assay buffer (20 mM HEPES, pH 7.3, 50 mM KCl, 5 mM MgCl2, 20 mM Na2MoO4, 2 mM DTT, 0.1 mg/mL BGG, and 0.01% NP-40) were added, followed by 25 μL of assay buffer containing 6 nM FITC-GDA (fluorescent tracer, stock in DMSO, diluted in assay buffer) and 50 μL of assay buffer containing 10 nM of either Grp94 or Hsp90α were added to each well. For each plate, wells containing buffer only (background), tracer in buffer only (low polarization control) and protein, tracer, and 1% DMSO (final concentration, high polarization control) were included. Compounds were then added with a final concentration of DMSO=1%. Plates were incubated at 4° C. with rocking for 24 h. […] Polarization values were correlated to % tracer bound and compound concentrations.
# Chain of Endoplasmin (P41148 whole entry): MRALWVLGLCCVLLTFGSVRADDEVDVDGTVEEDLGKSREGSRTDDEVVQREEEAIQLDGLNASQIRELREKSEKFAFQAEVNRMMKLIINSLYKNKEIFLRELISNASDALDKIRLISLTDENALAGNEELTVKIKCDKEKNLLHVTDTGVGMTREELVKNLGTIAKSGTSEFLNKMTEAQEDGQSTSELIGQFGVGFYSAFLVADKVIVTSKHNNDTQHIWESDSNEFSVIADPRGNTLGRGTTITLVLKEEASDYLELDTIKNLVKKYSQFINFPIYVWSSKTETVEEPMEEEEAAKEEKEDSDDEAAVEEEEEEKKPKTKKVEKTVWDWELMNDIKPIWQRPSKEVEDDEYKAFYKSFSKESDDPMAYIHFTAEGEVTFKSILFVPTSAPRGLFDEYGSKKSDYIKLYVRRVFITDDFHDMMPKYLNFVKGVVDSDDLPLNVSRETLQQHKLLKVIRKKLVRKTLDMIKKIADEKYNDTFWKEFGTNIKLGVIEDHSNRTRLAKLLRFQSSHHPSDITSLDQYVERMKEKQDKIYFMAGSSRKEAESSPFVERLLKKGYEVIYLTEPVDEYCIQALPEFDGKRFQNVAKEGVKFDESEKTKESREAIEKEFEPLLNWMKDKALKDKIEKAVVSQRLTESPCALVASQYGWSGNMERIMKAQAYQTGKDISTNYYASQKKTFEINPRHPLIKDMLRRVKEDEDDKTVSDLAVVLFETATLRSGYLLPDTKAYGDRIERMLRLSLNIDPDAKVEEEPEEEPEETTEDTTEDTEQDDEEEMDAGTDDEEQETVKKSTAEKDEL
row,Structure (SMILES),Kd
1,COC(=O)c1c(O)cc(O)c(Cl)c1CCc1ccc(OC)cc1Cc1ccccc1,680 nM
2,COC(=O)c1c(O)cc(O)c(Cl)c1CCc1ccccc1Cc1ccccc1Cl,5500 nM
3,COC(=O)c1c(O)cc(O)c(Cl)c1CCc1cccc(O)c1Cc1ccccc1,540 nM
4,COC(=O)c1c(O)cc(O)c(Cl)c1CCc1cccc(OC)c1Cc1ccccc1,730 nM
5,COC(=O)c1c(O)cc(O)c(Cl)c1CCc1ccccc1Cc1ccccc1OC,7800 nM
6,COC(=O)c1c(O)cc(O)c(Cl)c1CCc1ccc(O)cc1Cc1ccccc1,330 nM
7,COC(=O)c1c(O)cc(O)c(Cl)c1CCc1ccc(N)cc1Cc1ccccc1,240 nM
8,COC(=O)c1c(O)cc(O)c(Cl)c1CCc1cc(OC)ccc1Cc1ccccc1,450 nM

# Continued by falling Kd, values first:
row,Kd,Structure (SMILES)
1,11900 nM,COC(=O)c1c(O)cc(O)c(Cl)c1CCc1ccccc1Cc1cccc(Cl)c1
2,10400 nM,COC(=O)c1c(O)cc(O)c(Cl)c1CCc1cccc(Cc2ccccc2)c1
3,6100 nM,CCOc1ccccc1Cc1ccccc1CCc1c(Cl)c(O)cc(O)c1C(=O)OC
4,4200 nM,COC(=O)c1c(O)cc(O)c(Cl)c1CCc1ccccc1Cc1ccc(Cl)cc1
5,280 nM,COC(=O)c1c(O)cc(O)c(Cl)c1CCc1cc(N)ccc1Cc1ccccc1
